Measurements: ChEMBL document CHEMBL3580546, “Structure-activity study of N-((trans)-4-(2-(7-cyano-3,4-dihydroisoquinolin-2(1H)-yl)ethyl)cyclohexyl)-1H-indole-2-carboxamide (SB269652), a bitopic ligand that acts as a negative allosteric modulator of the dopamine D2 receptor” (J Med Chem, 2015)

How the values were obtained:
[1] = target: D(2) dopamine receptor (Homo sapiens) (UniProt P14416); test: Negative allosteric modulator activity at wild type human dopamine D2L receptor expressed in FlpIn CHO […] assessed as ERK1/2 phosphorylation measured as equilibrium dissociation constant after 30 mins; format: cell-based
[2] = target: D(2) dopamine receptor (Homo sapiens) (UniProt P14416); test: Displacement of [3H]raclopride from wild type human dopamine D2L receptor expressed in FlpIn CHO cell membrane assessed as equilibrium dissociation constant after 3 hrs by MicroBeta counting analysis; format: cell membranes
[3] = target: D(2) dopamine receptor (Homo sapiens) (UniProt P14416); test: Binding affinity to human dopamine D2 receptor

Sequence of D(2) dopamine receptor (Homo sapiens) (P14416 whole entry): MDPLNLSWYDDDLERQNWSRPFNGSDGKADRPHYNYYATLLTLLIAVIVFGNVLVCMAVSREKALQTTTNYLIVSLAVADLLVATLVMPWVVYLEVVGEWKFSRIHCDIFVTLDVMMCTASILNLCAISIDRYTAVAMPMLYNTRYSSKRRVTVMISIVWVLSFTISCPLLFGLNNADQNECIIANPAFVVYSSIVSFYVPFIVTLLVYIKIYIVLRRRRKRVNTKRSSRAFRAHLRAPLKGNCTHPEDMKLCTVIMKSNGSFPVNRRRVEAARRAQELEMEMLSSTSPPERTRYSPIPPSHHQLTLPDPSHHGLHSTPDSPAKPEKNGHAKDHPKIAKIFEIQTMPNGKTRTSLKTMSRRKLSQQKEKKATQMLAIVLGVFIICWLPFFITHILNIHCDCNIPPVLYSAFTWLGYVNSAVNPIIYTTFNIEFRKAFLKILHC

| SMILES | Kb [1] [nM] | pKb [1] | Kb [2] [nM] | pKb [2] | Kb [3] [nM] |
| --- | --- | --- | --- | --- | --- |
| O=C(N[C@H]1CC[C@H](CCN2CCc3ccc(C(F)(F)F)cc3C2)CC1)c1cc2ccccc2[nH]1 | 891 | 6.05 | 759 | 6.12 |  |
| N#Cc1ccc2c(c1)CNCC2 |  |  |  |  | 2500 |
| O=C(N[C@H]1CC[C@H](CCN2CCc3ccc(Cl)cc3C2)CC1)c1cc2ccccc2[nH]1 | 2090 | 5.68 | 148 | 6.83 |  |
| O=C(N[C@H]1CC[C@H](CCN2CCc3sccc3C2)CC1)c1cc2ccccc2[nH]1 | 339 | 6.47 | 2240 | 5.65 |  |
| O=C(N[C@H]1CC[C@H](CCN2CCN(c3cccc(Cl)c3Cl)CC2)CC1)c1cc2ccccc2[nH]1 | 1.38 | 8.86 | 5.25 | 8.28 |  |
| O=C(N[C@H]1CC[C@H](CCN2CCc3ccc(F)cc3C2)CC1)c1cc2ccccc2[nH]1 | 1050 | 5.98 | 245 | 6.61 |  |
| N#Cc1ccc2c(c1)CN(CCCCCNC(=O)c1cc3ccccc3[nH]1)CC2 | 132 | 6.88 | 479 | 6.32 |  |
| CN(C(=O)c1cc2ccccc2[nH]1)[C@H]1CC[C@H](CCN2CCc3ccc(C#N)cc3C2)CC1 | 91.2 | 7.04 | 117 | 6.93 |  |
| N#Cc1ccc2c(c1)CN(CCCCNC(=O)c1cc3ccccc3[nH]1)CC2 | 81.2 | 7.09 | 158 | 6.8 |  |
| COc1ccccc1N1CCN(CC[C@H]2CC[C@H](NC(=O)c3cc4ccccc4[nH]3)CC2)CC1 | 0.257 | 9.59 | 3.4 | 8.41 |  |
| N#Cc1ccc2c(c1)CN(CCCNC(=O)c1cc3ccccc3[nH]1)CC2 | 138 | 6.86 | 372 | 6.43 |  |
| O=C(N[C@H]1CC[C@H](CCN2CCCc3ccccc3C2)CC1)c1cc2ccccc2[nH]1 | 2570 | 5.59 | 2510 | 5.6 |  |
| N#Cc1ccc2c(c1)CN(CCCCCCNC(=O)c1cc3ccccc3[nH]1)CC2 | 30.1 | 7.52 | 269 | 6.57 |  |
| O=C(N[C@H]1CC[C@H](CCN2CCc3ccccc3C2)CC1)c1cc2ccccc2[nH]1 | 87 | 7.06 | 295 | 6.53 |  |

Continued, in another order:

| Kb [1] [nM] | pKb [1] | Kb [2] [nM] | pKb [2] | SMILES | Kb [3] [nM] |
| --- | --- | --- | --- | --- | --- |
| 174 | 6.76 | 81.3 | 7.09 | N#Cc1ccc2c(c1)CN(CC[C@H]1CC[C@H](NC(=O)c3nc4ccccc4[nH]3)CC1)CC2 |  |
| 23.4 | 7.63 | 45.7 | 7.34 | N#Cc1ccc2c(c1)CN(CC[C@H]1CC[C@H](NC(=O)c3cc4cccnc4[nH]3)CC1)CC2 |  |
| 18.2 | 7.74 | 263 | 6.58 | N#Cc1ccc2c(c1)CN(CC[C@H]1CC[C@H](NC(=O)c3nc4ccccc4o3)CC1)CC2 |  |
| 27.5 | 7.56 | 23.4 | 7.63 | N#Cc1ccc2c(c1)CN(CC[C@H]1CC[C@H](NC(=O)[C@@H]3CCCN3)CC1)CC2 |  |
| 45.7 | 7.34 | 363 | 6.74 | N#Cc1ccc2c(c1)CN(CC[C@H]1CC[C@H](NC(=O)[C@H]3CCCN3)CC1)CC2 |  |
| 22.9 | 7.64 | 151 | 6.82 | N#Cc1ccc2c(c1)CN(CC[C@H]1CC[C@H](NC(=O)C3=Cc4ccccc4C3)CC1)CC2 |  |
| 3.31 | 8.48 | 57.5 | 7.24 | N#Cc1ccc2c(c1)CN(CC[C@H]1CC[C@H](NC(=O)c3ccc[nH]3)CC1)CC2 |  |
| 18.2 | 7.74 | 282 | 6.55 | N#Cc1ccc2c(c1)CN(CC[C@H]1CC[C@H](NC(=O)c3cc4ccccc4o3)CC1)CC2 |  |
| 72.4 | 7.14 | 151 | 6.82 | Cn1c(C(=O)N[C@H]2CC[C@H](CCN3CCc4ccc(C#N)cc4C3)CC2)cc2ccccc21 |  |
| 138 | 6.86 | 170 | 6.77 | O=C(N[C@H]1CC[C@H](CCN2CCc3ccc(Br)cc3C2)CC1)c1cc2ccccc2[nH]1 |  |
